# Measured values as given in EP3717657B1, “A SYSTEM FOR ASSESSING MICROBIAL SUSCEPTIBILITY TO ANTIBIOTIC AGENTS” (Ascilion AB, priority 2017, dated 2019).
# Experiments:
# [1] = tested on: Staphylococcus aureus (ATCC 29213); experiment: Antibiotic susceptibility by glucose consumption in culture medium, blood culture bottle inoculum (Example 1); format: cell-based; details: for Glucose concentration t=0: 0 minutes; for Glucose concentration t=60: 60 minutes; for Glucose concentration t=120: 120 minutes; for Glucose concentration t=180: 180 minutes; for Glucose concentration t=240: 240 minutes; for dC/dT: rate of change in glucose concentration;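 on dC/dT: rate calculated between the 60 and 180 min readings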
# Summary of the method: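 Bacteria grown in blood culture bottles until positive, diluted 1:100 into cation-adjusted Mueller-Hinton broth with glucose at 1.0 mg/mL plus antibiotic (µg/mL). Glucose read by glucometer at 0–240 min.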
# E. coli 17 = experiment: Qualitative susceptibility by glucose consumption, bacteria from plated cultures (Example 2, Table 6); format: cell-based
# Protocol: (§1) If the susceptibility score is a qualitative susceptibility score classifying the microorganism as "susceptible", or "non-susceptible" to an antibiotic agent the answer could be given in as little as 1 hour. Bacteria from plated cultures were suspended in cation adjusted Mueller-Hinton broth (SVA, Uppsala, Sweden) supplemented with glucose. Consequently, the concentration of microorgansims was typically two orders of magnitude higher as compared to Example 1. […] The tested microorganisms was one strain of E. faecium, two strains of E.coli and one S. aureus. Table 6. "--" denotes no measurement
# E. coli ATCC 25922 [2] = experiment: as above; format: cell-based
# Protocol: as §1
# E. faecium [3] = experiment: as above; format: cell-based
# Protocol: as §1
# S. aureus = experiment: as above; format: cell-based
# Protocol: If the susceptibility score is a qualitative susceptibility score classifying the microorganism as "susceptible", or "non-susceptible" to an antibiotic agent the answer could be given in as little as 1 hour.
# Bacteria from plated cultures were suspended in cation adjusted Mueller-Hinton broth (SVA, Uppsala, Sweden) supplemented with glucose. Consequently, the concentration of microorgansims was typically two orders of magnitude higher as compared to Example 1. […] The tested microorganisms was one strain of E. faecium, two strains of E.coli and one S. aureus. Table 6. "--" denotes no measurement
# E. faecium [4] = experiment: Qualitative susceptibility by glucose consumption, directly from positive BC-bottles (Example 2, Table 7); format: cell-based
# Protocol: With slightly lower microbe concentrations e.g. directly from positive BC-bottles (^~10^9 CFU/ml) the results are shown at least within 2 hours, where E. coli ATCC 25922 is classified as susceptible and E. faecium is non-susceptible. Table 7. "--" denotes no measurement
# E. coli ATCC 25922 [5] = experiment: as above; format: cell-based
# [6] = tested on: Escherichia coli ATCC 25922; details: E.coli, cited from earlier work
# [7] = tested on: Enterococcus faecalis ATCC 29212; details: E.faecalis, cited from earlier work
# [8] = tested on: Staphylococcus aureus ATCC 29213; details: S.aureus, cited from earlier work
# [9] = range obtained by EUCAST from ISO 20776-1: 2006
# [10] = reference MIC value, EUCAST QC tables Version 7.0, 2017
substance,measurement,setting,value
Gentamicin,MIC Measured,"[1]; S.aureus, 80% threshold of rate of change vs reference, between 60 and 180 minutes, obtained in 4 hours",0.25 µg/mL
same,F=the rate of change in glucose concentration in relation to the reference,"[1]; [Ab] 0,5 µg/mL",57%
same,Glucose concentration t=0,"[1]; [Ab] 0,5 µg/mL",143
same,Glucose concentration t=60,"[1]; [Ab] 0,5 µg/mL",154
same,Glucose concentration t=120,"[1]; [Ab] 0,5 µg/mL",137
same,Glucose concentration t=180,"[1]; [Ab] 0,5 µg/mL",116
same,Glucose concentration t=240,"[1]; [Ab] 0,5 µg/mL",78
same,dC/dT,"[1]; [Ab] 0,5 µg/mL",19
same,F=the rate of change in glucose concentration in relation to the reference,"[1]; [Ab] 0,25 µg/mL",66%
same,Glucose concentration t=0,"[1]; [Ab] 0,25 µg/mL",143
same,Glucose concentration t=60,"[1]; [Ab] 0,25 µg/mL",146
same,Glucose concentration t=120,"[1]; [Ab] 0,25 µg/mL",140
same,Glucose concentration t=180,"[1]; [Ab] 0,25 µg/mL",102
same,Glucose concentration t=240,"[1]; [Ab] 0,25 µg/mL",55
same,dC/dT,"[1]; [Ab] 0,25 µg/mL",22
same,F=the rate of change in glucose concentration in relation to the reference,[1]; [Ab] 1 µg/mL,30%
same,Glucose concentration t=0,[1]; [Ab] 1 µg/mL,137
same,Glucose concentration t=60,[1]; [Ab] 1 µg/mL,154
same,Glucose concentration t=120,[1]; [Ab] 1 µg/mL,146
same,Glucose concentration t=180,[1]; [Ab] 1 µg/mL,134
same,Glucose concentration t=240,[1]; [Ab] 1 µg/mL,119
same,dC/dT,[1]; [Ab] 1 µg/mL,10
same,F=the rate of change in glucose concentration in relation to the reference,[1]; [Ab] 2 µg/mL,12%
same,Glucose concentration t=0,[1]; [Ab] 2 µg/mL,144
same,Glucose concentration t=60,[1]; [Ab] 2 µg/mL,154
same,Glucose concentration t=180,[1]; [Ab] 2 µg/mL,146
same,Glucose concentration t=240,[1]; [Ab] 2 µg/mL,148
same,dC/dT,[1]; [Ab] 2 µg/mL,4
same,F=the rate of change in glucose concentration in relation to the reference,[1]; [Ab] 4 µg/mL,10%
same,Glucose concentration t=60,[1]; [Ab] 4 µg/mL,157
same,Glucose concentration t=120,[1]; [Ab] 4 µg/mL,147
same,Glucose concentration t=180,[1]; [Ab] 4 µg/mL,150
same,Glucose concentration t=240,[1]; [Ab] 4 µg/mL,149
same,dC/dT,[1]; [Ab] 4 µg/mL,4
same,F=the rate of change in glucose concentration in relation to the reference,[1]; [Ab] 8 µg/mL,0%
same,Glucose concentration t=0,[1]; [Ab] 8 µg/mL,142
same,Glucose concentration t=60,[1]; [Ab] 8 µg/mL,154
same,Glucose concentration t=120,[1]; [Ab] 8 µg/mL,150
same,Glucose concentration t=180,[1]; [Ab] 8 µg/mL,154
same,Glucose concentration t=240,[1]; [Ab] 8 µg/mL,140
same,dC/dT,[1]; [Ab] 8 µg/mL,0
same,F=the rate of change in glucose concentration in relation to the reference,[1]; [Ab] 16 µg/mL,0%
same,Glucose concentration t=0,[1]; [Ab] 16 µg/mL,139
same,Glucose concentration t=60,[1]; [Ab] 16 µg/mL,145
same,Glucose concentration t=120,[1]; [Ab] 16 µg/mL,150
same,Glucose concentration t=180,[1]; [Ab] 16 µg/mL,145
same,Glucose concentration t=240,[1]; [Ab] 16 µg/mL,145
same,dC/dT,[1]; [Ab] 16 µg/mL,0
same,F=the rate of change in glucose concentration in relation to the reference,[1]; [Ab] 32 µg/mL,3%
same,Glucose concentration t=0,[1]; [Ab] 32 µg/mL,144
same,Glucose concentration t=60,[1]; [Ab] 32 µg/mL,148
same,Glucose concentration t=120,[1]; [Ab] 32 µg/mL,145
same,Glucose concentration t=180,[1]; [Ab] 32 µg/mL,146
same,Glucose concentration t=240,[1]; [Ab] 32 µg/mL,145
same,dC/dT,[1]; [Ab] 32 µg/mL,1
same,Qualitative susceptibility score,"E. coli 17; E. coli 17, 256 µg/mL, plated cultures, Table 6",susceptible
same,Glucose concentration t=15,"E. coli 17; [Ab] 256 µg/mL, t=15",131
same,Glucose concentration t=30,"E. coli 17; [Ab] 256 µg/mL, t=30",126
same,Glucose concentration t=45,"E. coli 17; [Ab] 256 µg/mL, t=45",123
same,Qualitative susceptibility score,"E. coli ATCC 25922 [2]; E. coli ATCC 25922, 256 µg/mL, plated cultures, Table 6",susceptible
same,Glucose concentration t=15,"E. coli ATCC 25922 [2]; [Ab] 256 µg/mL, t=15",156
same,Glucose concentration t=30,"E. coli ATCC 25922 [2]; [Ab] 256 µg/mL, t=30",155
same,Glucose concentration t=45,"E. coli ATCC 25922 [2]; [Ab] 256 µg/mL, t=45",136
same,Qualitative susceptibility score,"E. faecium [3]; E. faecium, 256 µg/mL, plated cultures, Table 6",non-susceptible
same,Glucose concentration t=0,"E. faecium [3]; [Ab] 256 µg/mL, t=0",79
same,Glucose concentration t=15,"E. faecium [3]; [Ab] 256 µg/mL, t=15",47
same,Qualitative susceptibility score,"S. aureus; S. aureus, 256 µg/mL, plated cultures, Table 6",susceptible
same,Glucose concentration t=15,"S. aureus; [Ab] 256 µg/mL, t=15",137
same,Glucose concentration t=30,"S. aureus; [Ab] 256 µg/mL, t=30",139
same,Glucose concentration t=45,"S. aureus; [Ab] 256 µg/mL, t=45",131
same,Qualitative susceptibility score,"E. faecium [4]; E. faecium, 256 µg/mL, from positive BC-bottles, within 2 hours, Table 7",non-susceptible
same,Glucose concentration t=0,"E. faecium [4]; [Ab] 256 µg/mL, t=0",144
same,Glucose concentration t=45,"E. faecium [4]; [Ab] 256 µg/mL, t=45",105
same,Glucose concentration t=60,"E. faecium [4]; [Ab] 256 µg/mL, t=60",77
same,Glucose concentration t=75,"E. faecium [4]; [Ab] 256 µg/mL, t=75",47
same,Qualitative susceptibility score,"E. coli ATCC 25922 [5]; E. coli ATCC 25922, 256 µg/mL, from positive BC-bottles, within 2 hours, Table 7",susceptible
same,Glucose concentration t=0,"E. coli ATCC 25922 [5]; [Ab] 256 µg/mL, t=0",145
same,Glucose concentration t=45,"E. coli ATCC 25922 [5]; [Ab] 256 µg/mL, t=45",155
same,Glucose concentration t=60,"E. coli ATCC 25922 [5]; [Ab] 256 µg/mL, t=60",151
same,Glucose concentration t=90,"E. coli ATCC 25922 [5]; [Ab] 256 µg/mL, t=90",140
same,Glucose concentration t=105,"E. coli ATCC 25922 [5]; [Ab] 256 µg/mL, t=105",135
same,"MIC EUCAST, range in parentheses",[6]; [9],0.25 to 1 µg/mL
same,MIC EUCAST,[6]; [10],0.5 µg/mL
same,"MIC EUCAST, range in parentheses",[7]; [9],4 to 16 µg/mL
same,MIC EUCAST,[7]; [10],8 µg/mL
same,"MIC EUCAST, range in parentheses",[8]; [9],0.125 to 1 µg/mL
same,MIC EUCAST,[8]; [10],0.25 to 0.5 µg/mL
